From patent US20140039007A1, “COMPOSITIONS AND METHODS FOR MODULATING FARNESOID X RECEPTORS” (priority 2010, published 2014)

target: T1, human GST-FXR LBD (Homo sapiens, UniProt Q96RI1); assay: Human GST-FXR LBD Co-activator interaction Assay (FXR HTRF assay); type: biochemical; details: GST-FXR LBD / biotin-labeled SRC-1 peptide, response relative to GW4064
T1 construct: purchased Invitrogen
T1 sequence (Q96RI1 193-472 isoform Q96RI1-2): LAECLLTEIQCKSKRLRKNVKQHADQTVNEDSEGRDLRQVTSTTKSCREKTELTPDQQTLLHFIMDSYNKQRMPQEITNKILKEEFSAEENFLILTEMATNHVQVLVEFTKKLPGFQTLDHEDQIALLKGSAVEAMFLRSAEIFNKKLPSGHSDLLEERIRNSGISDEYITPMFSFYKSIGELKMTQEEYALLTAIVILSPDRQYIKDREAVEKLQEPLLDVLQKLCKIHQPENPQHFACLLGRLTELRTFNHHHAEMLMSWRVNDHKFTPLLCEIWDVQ
Source text: Human GST-FXR LBD Co-activator interaction Assay.
The FXR HTRF assay is a biochemical assay measuring the interaction between FXR and a coactivator protein (SRC1). The ligand-induced interaction with a coactivator protein is a critical step in transcriptional activation by FXR. Thus, this is an assay designed to measure FXR agonist activity of compounds.
Recombinant human Farnesoid X Receptor (FXR) ligand binding domain (amino acids 193-472) fused to glutathione S-transferase (GST) purified protein (GST-FXR LBD) was purchased (Invitrogen). The ligand-dependent interaction between GST-FXR LBD and a peptide derived from Steroid Receptor Coactivator-1 (SRC-1) was monitored by Fluorescence Resonance Energy Transfer (FRET). GST-FXR LBD was mixed with a biotin-labeled SRC-1 peptide (Sequence: Biotin-[…]-SPS-CONH2, American Peptide) in assay buffer (50 mM Tris HCl, pH 7.4, 50 mM NaCl, 1 mM TCEP and 0.2% bovine serum albumen) and plated in 384 black Proxi plates (Greiner Bio-One). Test compounds (in DMSO solution) and detection reagents (anti-GST-Cryptate labeled antibody and Streptavidin-XL665 conjugate; CisBio) were added in assay buffer containing 50 mM KF. Plates are incubated at room temperature in the dark for 2.5 hours before reading on an Envision (PerkinElmer) at 665 nm and 590 nm. The HTRF assay results were calculated from the 665 nm/590 nm ratio (ratio=(A665 nm/A590 nm)×10^4) and expressed in Delta F %=(Ratiosample−Rationegative)/Rationegative×100.
A negative control (without Streptavidin-XL665) was run with each assay and represented the background fluorescence. A reference FXR agonist, GW4064, was included in each experiment as positive control. The efficacy of each test compound was compared to that of GW4064. At each concentration, the relative activity of the test compound was expressed as Response %=(Rsample−RDMSO)/(Rpositive−RDMSO), where Rsample is the HTRF response, (expressed in Delta F %) for the test compound, Rpositive is the maximal response for GW4064 at saturating concentrations, and RDMSO is the response for DMSO control. The EC50 values were calculated using GraphPad Prism (GraphPad Software) using non-linear regression curve fit (log(agonist) vs. response−variable slope (four parameters)).

| SMILES | EC50 [nM] |
| --- | --- |
| COC(=O)c1ccc(-c2nc(N3CCC(OCc4c(-c5ccccc5OC(F)(F)F)noc4C4CC4)CC3)no2)cc1 [Example 1A, Methyl 4-(3-(4-((5-cyclopropyl-3-(2-(trifluoromethoxy)phenyl)isoxazol-4-yl)methoxy)piperidin-1-yl)-1,2,4-oxadiazol-5-yl)benzoate] | 2380 |
| O=C(O)c1ccc(-c2nc(N3CCC(OCc4c(-c5ccccc5OC(F)(F)F)noc4C4CC4)CC3)no2)cc1 [Example 1B, 4-(3-(4-((5-cyclopropyl-3-(2-(trifluoromethoxy)phenyl)isoxazol-4-yl)methoxy)piperidin-1-yl)-1,2,4-oxadiazol-5-yl)benzoic acid] | 90 |
| COC(=O)c1cccc(-c2nc(N3CCC(OCc4c(-c5ccccc5OC(F)(F)F)noc4C4CC4)CC3)no2)c1 [Example 2A, methyl 3-{3-[4-({5-cyclopropyl-3-[2-(trifluoromethoxy)phenyl]-1,2-oxazol-4-yl}methoxy)piperidin-1-yl]-1,2,4-oxadiazol-5-yl}benzoate] | 2020 |
| O=C(O)c1cccc(-c2nc(N3CCC(OCc4c(-c5ccccc5OC(F)(F)F)noc4C4CC4)CC3)no2)c1 [Example 2B, 3-{3-[4-({5-cyclopropyl-3-[2-(trifluoromethoxy)phenyl]-1,2-oxazol-4-yl}methoxy)piperidin-1-yl]-1,2,4-oxadiazol-5-yl}benzoic acid] | 128 |
| COC(=O)c1ccc(-c2nc(N3CCC(OCc4c(-c5ccccc5OC(F)(F)F)noc4C4CC4)CC3)no2)s1 [Example 3A, methyl 5-{3-[4-({5-cyclopropyl-3-[2-(trifluoromethoxy)phenyl]-1,2-oxazol-4-yl}methoxy)piperidin-1-yl]-1,2,4-oxadiazol-5-yl}thiophene-2-carboxylate] | 946 |
| COC(=O)C1CCC(c2nc(N3CCC(OCc4c(-c5c(Cl)cccc5Cl)noc4C4CC4)CC3)no2)CC1 (stereo not shown) [Example 6A, methyl 4-[3-(4-{[5-cyclopropyl-3-(2,6-dichlorophenyl)-1,2-oxazol-4-yl]methoxy}piperidin-1-yl)-1,2,4-oxadiazol-5-yl]cyclohexane-1-carboxylate] | 1620 |
| COC(=O)C1CCC(c2nc(N3CCC(OCc4c(-c5c(Cl)cccc5Cl)noc4C4CC4)CC3)no2)C1 (stereo not shown) [Example 7A, methyl-3-[3-(4-{[5-cyclopropyl-3-(2,6-dichlorophenyl)-1,2-oxazol-4-yl]methoxy}piperidin-1-yl)-1,2,4-oxadiazol-5-yl]cyclopentane-1-carboxylate] | 1590 |
| O=C(O)c1ccc(-c2nc(N3CCC(OCc4c(-c5c(F)cccc5F)noc4C4CC4)CC3)no2)cc1 [Example 10, 4-[3-(4-{[5-cyclopropyl-3-(2,6-difluorophenyl)-1,2-oxazol-4-yl]methoxy}piperidin-1-yl)-1,2,4-oxadiazol-5-yl]benzoic acid] | 934 |
| O=C(O)c1ccc(-c2nc(N3CCC(OCc4c(-c5ccccc5C(F)(F)F)noc4C4CC4)CC3)no2)cc1 [Example 11, 4-{3-[4-({5-cyclopropyl-3-[2-(trifluoromethyl)phenyl]-1,2-oxazol-4-yl}methoxy)piperidin-1-yl]-1,2,4-oxadiazol-5-yl}benzoic acid] | 587 |

Now from value to compound:

| EC50 [nM] | SMILES |
| --- | --- |
| 275 | O=C(O)c1ccc(-c2nc(N3CCC(OCc4c(-c5ccccc5OC(F)(F)F)noc4C4CC4)CC3)no2)s1 [Example 3B, 5-{3-[4-({5-cyclopropyl-3-[2-(trifluoromethoxy)phenyl]-1,2-oxazol-4-yl}methoxy)piperidin-1-yl]-1,2,4-oxadiazol-5-yl}thiophene-2-carboxylic acid] |
| 812 | COC(=O)c1ccc(-c2nc(N3CCC(OCc4c(-c5c(Cl)cccc5Cl)noc4C4CC4)CC3)no2)cc1 [Example 4A] |
| 114 | O=C(O)c1ccc(-c2nc(N3CCC(OCc4c(-c5c(Cl)cccc5Cl)noc4C4CC4)CC3)no2)cc1 [Example 4B] |
| 60 | O=C(O)c1cccc(-c2nc(N3CCC(OCc4c(-c5c(Cl)cccc5Cl)noc4C4CC4)CC3)no2)c1 [Example 5B, 3-[3-(4-{[5-cyclopropyl-3-(2,6-dichlorophenyl)-1,2-oxazol-4-yl]methoxy}piperidin-1-yl)-1,2,4-oxadiazol-5-yl]benzoic acid] |
| 823 | O=C(O)C1CCC(c2nc(N3CCC(OCc4c(-c5c(Cl)cccc5Cl)noc4C4CC4)CC3)no2)CC1 (stereo not shown) [Example 6B, 4-[3-(4-{[5-cyclopropyl-3-(2,6-dichlorophenyl)-1,2-oxazol-4-yl]methoxy}piperidin-1-yl)-1,2,4-oxadiazol-5-yl]cyclohexane-1-carboxylic acid] |
| 1560 | O=C(O)C1CCC(c2nc(N3CCC(OCc4c(-c5c(Cl)cccc5Cl)noc4C4CC4)CC3)no2)C1 (stereo not shown) [Example 7B, 3-[3-(4-{[5-cyclopropyl-3-(2,6-dichlorophenyl)-1,2-oxazol-4-yl]methoxy}piperidin-1-yl)-1,2,4-oxadiazol-5-yl]cyclopentane-1-carboxylic acid] |
| 2950 | COC(=O)c1ccc(-c2nc(N3CCC(OCc4c(-c5c(Cl)cccc5Cl)noc4C4CC4)CC3)no2)s1 [Example 8A, methyl 5-[3-(4-{[5-cyclopropyl-3-(2,6-dichlorophenyl)-1,2-oxazol-4-yl]methoxy}piperidin-1-yl)-1,2,4-oxadiazol-5-yl]thiophene-2-carboxylate] |
| 105 | O=C(O)c1ccc(-c2nc(N3CCC(OCc4c(-c5c(Cl)cccc5Cl)noc4C4CC4)CC3)no2)s1 [Example 8B, 5-[3-(4-{[5-cyclopropyl-3-(2,6-dichlorophenyl)-1,2-oxazol-4-yl]methoxy}piperidin-1-yl)-1,2,4-oxadiazol-5-yl]thiophene-2-carboxylic acid] |
| 463 | COC(=O)c1cccc(-c2nc(N3CCC(OCc4c(-c5c(Cl)cccc5Cl)noc4C4CC4)CC3)no2)n1 [Example 9A, methyl 6-[3-(4-{[5-cyclopropyl-3-(2,6-dichlorophenyl)-1,2-oxazol-4-yl]methoxy}piperidin-1-yl)-1,2,4-oxadiazol-5-yl]pyridine-2-carboxylate] |
| 128 | O=C(O)c1cccc(-c2nc(N3CCC(OCc4c(-c5c(Cl)cccc5Cl)noc4C4CC4)CC3)no2)n1 [Example 9B, 6-[3-(4-{[5-cyclopropyl-3-(2,6-dichlorophenyl)-1,2-oxazol-4-yl]methoxy}piperidin-1-yl)-1,2,4-oxadiazol-5-yl]pyridine-2-carboxylic acid] |
